Laboratory results reported in US20070203066A1, “Compositions and methods for inhibiting cellular proliferation” (priority 2005, published 2007).
Non-standard residues stand in square brackets, D forms with d. Primed or numbered codes have the meaning given here. No end group written: not given here. Ida = iminodiacetic acid linker, its two carboxyls bind the Lys side-chain amines of two peptides, giving a homodimer; Ida(3) = iminodiacetic acid linker, Lys side-chain amines bound to its two carboxyl groups; Ida(4) = iminodiacetic acid linker (dimerization linker bound to lysine side chain); Cha = N[C@@H](CC1CCCCC1)C(=O)O; Aib = CC(C)(N)C(=O)O

system: HUVECs; format: cell-based; settings: 48 h
How it was run: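 HUVECs seeded at 5,000 cells/well in EBM with 2% FCS, adhered ≥12 hours, then stimulated with bFGF 10 ng/ml or VEGF 5 ng/ml plus varying peptide concentrations. After 48 hours at 37 ° C, 5% CO2, proliferation inhibition read by BrdU incorporation.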

| Compound | IC50 |
| --- | --- |
| CC[C@@H](C)[C@@H](NC(=O)[C@@H](NC(=O)[C@H](C)NC(=O)[C@@H](NC(=O)[C@H](CCCNC(=N)N)NC(=O)[C@H](CCC(N)=O)NC(=O)[C@H](CCCNC(=N)N)NC(=O)[C@H](CCCNC(=N)N)NC(=O)[C@H](CCCNC(=N)N)NC(=O)[C@H](CCCNC(=N)N)NC(=O)[C@H](C)NC(C)=O)C(C)C)[C@@H](C)CC)C(=O)N[C@@H](Cc1ccccc1)C(=O)N[C@@H](CCCCNC(=O)CN(CC(=O)NCCCC[C@H](NC(=O)[C@H](Cc1ccccc1)NC(=O)[C@H](NC(=O)[C@@H](NC(=O)[C@H](C)NC(=O)[C@@H](NC(=O)[C@H](CCCNC(=N)N)NC(=O)[C@H](CCC(N)=O)NC(=O)[C@H](CCCNC(=N)N)NC(=O)[C@H](CCCNC(=N)N)NC(=O)[C@H](CCCNC(=N)N)NC(=O)[C@H](CCCNC(=N)N)NC(=O)[C@H](C)NC(C)=O)C(C)C)[C@@H](C)CC)[C@H](C)CC)C(N)=O)C(=O)CCNC(=O)OC(C)(C)C)C(N)=O [Peptide 254] | < 10 µM |
| CC[C@H](C)[C@H](NC(=O)[C@H](C)NC(=O)[C@@H](NC(=O)[C@H](CCCNC(=N)N)NC(=O)[C@H](CCC(N)=O)NC(=O)[C@H](CCCNC(=N)N)NC(=O)[C@H](CCCNC(=N)N)NC(=O)[C@H](CCCNC(=N)N)NC(=O)[C@H](CCCNC(=N)N)NC(=O)[C@H](C)NC(C)=O)C(C)C)C(=O)N[C@@H](Cc1ccc(O)cc1)C(=O)N[C@@H](CCC(=O)O)C(=O)N[C@@H](CCCCNC(=O)CN(CC(=O)NCCCC[C@H](NC(=O)[C@H](CCC(=O)O)NC(=O)[C@H](Cc1ccc(O)cc1)NC(=O)[C@@H](NC(=O)[C@H](C)NC(=O)[C@@H](NC(=O)[C@H](CCCNC(=N)N)NC(=O)[C@H](CCC(N)=O)NC(=O)[C@H](CCCNC(=N)N)NC(=O)[C@H](CCCNC(=N)N)NC(=O)[C@H](CCCNC(=N)N)NC(=O)[C@H](CCCNC(=N)N)NC(=O)[C@H](C)NC(C)=O)C(C)C)[C@@H](C)CC)C(N)=O)C(=O)CCNC(=O)OC(C)(C)C)C(N)=O [Peptide 346] | > 30 µM |

same assay, conditions: HUVEC proliferation, bFGF at 10 ng/ml or VEGF at 5 ng/ml, 48 hours, BrdU incorporation; read-out: IC50 on HUVECs

| Compound | IC50 |
| --- | --- |
| 305 (Ac-RRRRRQAVRIIK(Ida)VN; also: homodimer via Ida linker on Lys12 side chain) [compound 305] | < 10 µM |
| 360 (Ac-RRRHRQHVHIYFK(Ida(3))-NH2; also: homodimer via Ida linker on Lys13 side chain, Boc on Ida amine) [compound 360] | < 10 µM |
| 319 (Ac-ARRRRQHVHIYFK(Ida)-NH2; also: homodimer via Ida linker on Lys13 side chain) [compound 319] | < 10 µM |
| 473 (Ac-PRRRLQAVAIYFK(Ida(3)); not fully specified (C-terminus); also: homodimer via Ida linker on Lys13 side chain) [compound 473] | > 30 µM |
| 192 (Ac-ARARRQRVRIIF; also: dimer: C-terminal Phe bound to an amino group of a Lys linker, 2 chains per Lys) [compound 192] | < 10 µM |
| 344 (Ac-ARRRRQRVAIY[Cha]K-NH2; not fully specified (residue 13); also: homodimer: Lys13 side chains joined by Ida (iminodiacetic acid) linker) [compound 344] | < 10 µM |
| 264 (Ac-[dA]RRRRQRVAIIFK-NH2; not fully specified (residue 13); also: homodimer via Ida linker on Lys13 side chains) [compound 264] | < 10 µM |
| 426 (Ac-ARRRRQYVAIYFK; not fully specified (residue 13, C-terminus); also: homodimer of residues 1-13 via Ida linker on Lys13 side chain) [compound 426] | < 10 µM |
| 298 (Ac-ARRRRQRVA[Aib]FK-NH2; not fully specified (residue 12); also: homodimer via Ida linker on Lys12 side chain) [compound 298] | > 30 µM |
| KTKRKRKKIAYEEIFVQNM [compound 58] | > 30 µM |
| 478 (Ac-PRRRTQAVAIYFK(Ida(3)); not fully specified (C-terminus); also: homodimer via Ida linker on Lys13 side chain) [compound 478] | 10 to 30 µM |
| KTKRKRKKQRVKIIAVQNM [compound 109] | > 30 µM |
| 302 (Ac-RRRRRQAVRIAIAFK(Ida)-NH2; also: homodimer via Ida linker on Lys15 side chain) [compound 302] | < 10 µM |
| 416 (Ac-ARRRRQAVRIKF; not fully specified (residue 11); also: homodimer via Ida linker on Lys side chains, linker at 11 via Ida, other end not in the chain) [compound 416] | < 10 µM |
| 337 (Ac-RHRHRQHVRIYFK(Ida(3))-NH2; also: homodimer via Lys13 side chain, Ida linker (Ida amino group Boc)) [compound 337] | < 10 µM |
| 433 (Ac-RRRREQAVAIYFK(Ida(4)); not fully specified (C-terminus); also: homodimer via Ida linker at K13) [compound 433] | 10 to 30 µM |
| 303 (Ac-RRRRRQAVRIQIQFK(Ida)-NH2; also: homodimer via Ida linker on Lys15 side chain) [compound 303] | < 10 µM |
| 204 (Ac-RRARRQAVRIIF; also: dimer: C-terminal Phe bound to an amino group of a Lys linker, 2 chains per Lys) [compound 204] | < 10 µM |
| 238 (Ac-RHRRRQHVRIIF; also: dimer via C-terminal Phe to Lys linker) [compound 238] | < 10 µM |
| KTKRKRKKQRVKEIFVQNM [compound 32] | > 30 µM |
| 338 (Ac-RHRRRQHVHIYFK(Ida(3))-NH2; also: homodimer via Lys13 side chain, Ida linker (Ida amino group Boc)) [compound 338] | < 10 µM |
| 186 (Ac-RRHRRQRVRIIF; also: homodimer via C-terminal Lys linker) [compound 186] | < 10 µM |

| Compound | IC50 |
| --- | --- |
| ATKRKRKKQRVKIIFVQNM [compound 123] | < 10 µM |
| 401 (Ac-ERRRRQAVAIYFK(Ida(3))-NH2; also: homodimer via Ida linker on Lys13 side chain, Ida amine Boc) [compound 401] | < 10 µM |
| 281 (Ac-RRRRHQAVAIYFK-NH2; not fully specified (residue 13); also: homodimer via Ida linker on Lys13 side chain) [compound 281] | < 10 µM |
| 250 (Ac-RRRRRQAVAIHFK; not fully specified (C-terminus); also: homodimer: side chain of Lys13 bound to an Ida linker) [compound 250] | < 10 µM |
| 441 (Ac-RRRRTQAVAIYFK(Ida(4)); not fully specified (C-terminus); also: homodimer via Ida linker at K13) [compound 441] | < 10 µM |
| 383 (Ac-ARRRRQFVAIYFK-NH2; not fully specified (residue 13); also: homodimer via Ida linker on Lys13 side chain, Ida amine Boc) [compound 383] | < 10 µM |
| KTKRKRKKQRVKI [compound 38] | > 30 µM |
| 286 (Ac-RRRRAQHVHIYFK-NH2; not fully specified (residue 13); also: homodimer via Ida linker on Lys13 side chain) [compound 286] | < 10 µM |
| KRKKQQRVKIAYEEIFV [compound 77] | > 30 µM |
| KRKKQRVKIIFV [compound 88] | > 30 µM |
| 417 (Ac-RRRRRQAVAIKFV; not fully specified (residue 11); also: homodimer via Ida linker on Lys side chains, linker at 11 via Ida, other end not in the chain) [compound 417] | < 10 µM |
| 395 (Ac-ARRRRQAVTIYFK; not fully specified (residue 13, C-terminus); also: homodimer of residues 1-13 via Ida linker at Lys13 side chain) [compound 395] | < 10 µM |
| RKKQRVKIIF [compound 84] | > 30 µM |
| KTKRKRKKQRVKIAYEENM [compound 41] | > 30 µM |
| 104 (Ac-KTKRKRKKQRVKIIFVQNM; also: homodimer via C-terminal Lys linker) [compound 104] | < 10 µM |
| 449 (Ac-RRRRRAAAAAAAK(Ida(4)); not fully specified (C-terminus); also: homodimer via Ida linker at K13) [compound 449] | > 30 µM |
| KKQRVKIAYEEIF [compound 70] | > 30 µM |
| 189 (Ac-RRRRRQHVRIIF; also: dimer: C-terminal Phe bound to an amino group of a Lys linker, 2 chains per Lys) [compound 189] | < 10 µM |
| TKRKRKKQRVKIIF [compound 80] | > 30 µM |
| 229 (XHRRRQRVRIIF; Xaa = Acylated Histidine; Dimeric peptide wherein the C terminus of Phe in position 12 of one peptide chain is covalently bound to one of the amino groups of a Lysine linker and Phe of the remaining peptide chain is covalently bound to the other amino group of the Lysine linker.) [compound 229] | < 10 µM |
| 222 (XHHHHQAVAIIF; Xaa = Acylated Histidine; Dimeric peptide wherein the C terminus of Phe in position 12 of one peptide chain is covalently bound to one of the amino groups of a Lysine linker and Phe of the remaining peptide chain is covalently bound to the other amino group of the Lysine linker.) [compound 222] | > 30 µM |
